The numbers were not newly measured in patent US9375525B2, “Modular extracorporeal systems and methods for treating blood-borne diseases” (Somerset Group Enterprises, Inc., priority 2012, dated 2016), which cites them from elsewhere.

Like-named read-outs stand apart in the source and are kept apart here.

The test system of one data set is pathogens. To be noted: bactericidal or static.
For a further data set, the system named is Listeria. To be noted: carbonation volume of about 2, about 35° C., pressure up to about 350 MPa, about 300 seconds.
In a further data set the test system is S. aureus. To be noted: basic conditions versus slightly acidic conditions.

For the compound `NCC[C@H](O)C(=O)N[C@@H]1C[C@H](N)[C@@H](O[C@H]2O[C@H](CN)[C@@H](O)[C@H](O)[C@H]2O)[C@H](O)[C@H]1O[C@H]1O[C@H](CO)[C@@H](O)[C@H](N)[C@H]1O` [Amikacin], the activity entry with pathogens is “bactericidal”. The “Issues with Respect to In vivo Toxicity or Side Effects” value (shortened to “Issues”) (in vivo) is on record as “Nephrotoxicity, ototoxicity”.
Take `O=C=O` [CO2, Carbon dioxide]: in the data set with Listeria, the “inactivation of Listeria” value is on record as “enhanced the inactivation”.
In the case of `O=C(O)c1cn(C2CC2)c2cc(N3CCNCC3)c(F)cc2c1=O` [Ciprofloxalin], the activity result in the data set on pathogens is listed as “bactericidal”.
As to `CCCCCCCCCC(=O)N[C@@H](Cc1c[nH]c2ccccc12)C(=O)N[C@H](CC(N)=O)C(=O)N[C@@H](CC(=O)O)C(=O)N[C@@H]1C(=O)NCC(=O)N[C@@H](CCCN)C(=O)N[C@@H](CC(=O)O)C(=O)N[C@H](C)C(=O)N[C@@H](CC(=O)O)C(=O)NCC(=O)N[C@H](CO)C(=O)N[C@@H]([C@H](C)CC(=O)O)C(=O)N[C@@H](CC(=O)c2ccccc2N)C(=O)O[C@@H]1C` [Daptomycin], the activity entry in the data set with pathogens is listed as “bactericidal”.
For the compound `CN(C)c1cc(NC(=O)CNC(C)(C)C)c(O)c2c1C[C@H]1C[C@H]3[C@H](N(C)C)C(O)=C(C(N)=O)C(=O)[C@@]3(O)C(O)=C1C2=O` [Tigecycline], in the data set on pathogens, the activity entry is given as “static”.
As for `NC[C@H]1O[C@H](O[C@H]2[C@H](O)[C@@H](O[C@H]3O[C@H](CO)[C@@H](O)[C@H](N)[C@H]3O)[C@H](N)C[C@@H]2N)[C@H](N)C[C@@H]1O` [Tobramycin], the activity entry with pathogens is given as “bactericidal”. The “Issues” value (in vivo) is listed as “Nephrotoxicity, ototoxicity”.
On to `N[C@@H]1[C@H]2CN(c3nc4c(cc3F)c(=O)c(C(=O)O)cn4-c3ccc(F)cc3F)C[C@@H]12` [Trovafloxacin], for which, in the data set with pathogens, the activity result is reported as “bactericidal”. For the same compound, under “in vivo”, the “Issues” value is “Histamine release, Idiosyncratic”.
`CN[C@H](CC(C)C)C(=O)N[C@H]1C(=O)N[C@@H](CC(N)=O)C(=O)N[C@H]2C(=O)N[C@H]3C(=O)N[C@H](C(=O)N[C@H](C(=O)O)c4cc(O)cc(O)c4-c4cc3ccc4O)[C@H](O)c3ccc(c(Cl)c3)Oc3cc2cc(c3O[C@@H]2O[C@H](CO)[C@@H](O)[C@H](O)[C@H]2O[C@H]2C[C@](C)(N)[C@H](O)[C@H](C)O2)Oc2ccc(cc2Cl)[C@H]1O` [vancomycin]: the “killing S. aureus” value in the data set with S. aureus was “under basic conditions better than under slightly acidic conditions”.
For the compound Colistin, the activity entry with pathogens is reported as “bactericidal”. The “Issues” value (in vivo use) is recorded as “Only used as last resort antibiotics”.
For the compound Gentamycin, in the data set on pathogens, the activity result is given as “bactericidal”. Moreover, the “Issues” value (in vivo use) was “Nephrotoxicity, ototoxicity”.
Turning to Polymixin B, the activity entry in the data set with pathogens is “bactericidal”. Also, the “Issues” value (in vivo) was “due to renal and neurotoxicity”.
